“And” between values parts separate entries of the source, which are not always exact repeats. Equal values may be shown once.
Legend:
[1] = tested on: diabetic NOD mice; assay: Daily food intake in NOD mice; type: in vivo, mouse; set-up: Daily food intake (Figure 7E): unit not given here; details: for Daily food intake (Figure 7E): Diabetic, WCDD301 treated
Method: We preweighed WCDD301 into microfuge tubes and reconstituted it using deionized water. Using a 10 μL pipette tip, we placed the calculated dose of WCDD301 (at the volume range of 1–1.5 μL) within the center of pearls. WCDD301 was placed into pearls 30–45 minutes before administration. For oral administration of pearls, we designed an applicator using a disposable plastic transfer pipette and syringe plunger lubricated with olive oil. Food intake and body weight in each experimental group (diabetic WCDD301-treated, diabetic placebo-treated, and nondiabetic placebo-treated NOD mice) were monitored daily for 4 weeks. Urine glucose was measured from individually caged NOD mice (nondiabetic placebo treated n = 2, diabetic placebo treated n = 2, and diabetic WCDD301 treated n = 4, 21–23 weeks old) with metabolic cages. Urine glucose was monitored every 24 hours for 10 days by semiquantitative measurements (P-STICKS, Millpledge Veterinary).

[2] = tested on: α cells of NOD mice islets; assay: EphA4 signal in α cells of pancreatic slices of NOD mice; type: in vivo, mouse; details: WCDD301-treated NOD mice; diabetic 12.64 ± 1.12, nondiabetic 18.62 ± 1.09
Method: Pancreata of NOD mice (females, n = 3 per group) from nondiabetic, diabetic placebo-treated, and diabetic WCDD301-treated cohorts were excised; fixed in 10% buffered formalin for 5 days; and treated with ethanol 70% for 2 days before paraffin embedding. The paraffin-embedded tissue blocks were longitudinally sectioned in 5 μm slices and fixed on microscope slides. Following deparaffinization (through incubation in graded xylene, graded ethanol, and PBS), permeabilization (using 0.1% Triton X-100 in PBS), and background blocking (using 5% BSA solution containing 0.1% Tween 20), samples were incubated with primary antibodies (mouse anti-glucagon, Abcam, catalog ab10988; above-mentioned rabbit anti-EphA4), secondary antibodies (goat anti-mouse IgG Alexa Fluor 488; Invitrogen, catalog A-11001; goat anti-rabbit IgG Alexa Fluor 633, Invitrogen, catalog A-21070), SPY555-Actin (Cytoskeleton, catalog SC202), and DAPI. Image acquisition and analysis were performed as for dispersed islet cells. […] ROIs were manually drawn around each islet, background signal was removed by thresholding, and intensity of glucagon signal was determined and normalized by the islet surface area. To determine sizes of α cells per islet, ROIs were manually drawn around α cells in each islet. […]

[3] = tested on: diabetic NOD mice; assay: Insulin tolerance test in NOD mice; type: in vivo, mouse; details: WCDD301 dosing
Excerpt: Following a 4-hour fast, nondiabetic placebo-treated (n = 4), diabetic placebo-treated (n = 4), and diabetic WCDD301-treated (n = 4) NOD female mice were intraperitoneally injected with insulin (Humulin-R; 0.75 U/kg, Eli Lilly and Company). […]

[4] = tested on: human donor dispersed islet cells; assay: Somatostatin secretion from non-diabetic human donor dispersed islet cells; type: cell-based
Method: Pancreata of nondiabetic C57BL/6J mice were digested using collagenase P (Roche Diagnostics, catalog 11213873001), and islets were manually picked up using a stereomicroscope (ZEISS Stemi 305). […] Isolated mouse islets or provided human islets were dispersed as described ([28]). Briefly, 100–120 islets were washed 2 times using modified HBSS, then dispersed in 600 μL Accutase (Innovative Cell Technologies, catalog AT-104) by gently pipetting up and down for 7 minutes at 37°C. […] Following refreshing of KRBH, cells were dispensed in 8 microfuge tubes (2,000 cells/tube) and treated with WCDD301, preclustered Ephrin-A5 Fc, or preclustered Fc in the presence or absence of the competitive inhibitor of EphA4 receptor, rhyncophylline ([60]) (MilliporeSigma, catalog SML2345). In the presence or absence of these effectors, secretion assay was performed sequentially as shown in Supplemental Table 5. […] Preclustering of Ephrin-A5 Fc was done by mixing Ephrin-A5 Fc or Fc alone (BioLegend, catalog 790102) with anti-Fc antibody (Invitrogen, catalog A16086) (1:10 molar ratio) 20 minutes before treatment ([62]). […] Shedding of cleaved EphA4 was measured from the cell culture medium. Experiments were performed by dispersion of 200 islets, and EphA4 levels in media were measured by EphA4 ELISA (ABclonal, catalog RK06572).
The Integrated Islet Distribution Program provided us human donor islets with their characteristics (Supplemental Table 6). Islets were centrifuged at 500g for 3 minutes, resuspended in CMRL 1066 medium (Gibco, catalog 1150-037) containing 11 mM glucose, and rested in an incubator overnight.
For the hormone secretion assay, islets or dispersed islet cells were adapted in KRBH buffer containing 11 mM glucose for 1 hour. Then, after 2 washes in HBSS containing 11 mM glucose, islets or cells were treated in the following sequential order in the presence or absence of WCDD301: incubation in KRBH (1 mM glucose, 30 minutes) followed by medium collection, incubation in KRBH (11 mM glucose, 30 minutes) followed by medium collection.

## CC(=O)OCC(N)(COC(C)=O)COC(C)=O [WCDD301, 2-(acetoxymethyl)-2-aminopropane-1,3-diyl diacetate]
[1]; Day 1
  Daily food intake (Figure 7E): 188.5 and 161.1 and 187.4 and 162.1
[1]; Day 2
  Daily food intake (Figure 7E): 210.5 and 168.9 and 209.3 and 170
[1]; Day 3
  Daily food intake (Figure 7E): 184.2 and 168.9 and 183.1 and 170
[1]; Day 4
  Daily food intake (Figure 7E): 192.5 and 167.7
[1]; Day 7
  Daily food intake (Figure 7E): 203.2 and 168.3 and 202 and 169.4
[1]; Day 8
  Daily food intake (Figure 7E): 200 and 184.4 and 198.8 and 185.5
[1]; Day 9
  Daily food intake (Figure 7E): 226.3 and 184.4 and 225 and 185.5
[1]; Day 10
  Daily food intake (Figure 7E): 211.6 and 161.9 and 188.3 and 170.8
[1]; Day 11
  Daily food intake (Figure 7E): 185.1 and 169.8 and 210.3 and 170.8
[1]; Day 12
  Daily food intake (Figure 7E): 193.5 and 169.8 and 184 and 169.5
[1]; Day 13
  Daily food intake (Figure 7E): 182.7 and 168.5 and 192.3 and 160.2
[1]; Day 14
  Daily food intake (Figure 7E): 191.2 and 159.2 and 181.6
[1]; Day 15
  Daily food intake (Figure 7E): 204.2 and 190.1 and 190 and 170.2
[1]; Day 16
  Daily food intake (Figure 7E): 201 and 169.2 and 203 and 186.4
[1]; Day 17
  Daily food intake (Figure 7E): 227.4 and 185.3 and 199.8 and 186.4
[1]; Day 18
  Daily food intake (Figure 7E): 190.4 and 185.3 and 226.1 and 163.7
[1]; Day 19
  Daily food intake (Figure 7E): 212.6 and 162.7 and 189.2 and 171.7
[1]; Day 20
  Daily food intake (Figure 7E): 186.1 and 170.6 and 211.4 and 171.7
[1]; Day 21
  Daily food intake (Figure 7E): 194.4 and 170.6 and 184.9 and 170.4
[1]; Day 22
  Daily food intake (Figure 7E): 183.6 and 169.3 and 193.3 and 161
[1]; Day 23
  Daily food intake (Figure 7E): 192.1 and 160 and 182.5 and 192.2
[1]; Day 24
  Daily food intake (Figure 7E): 205.2 and 191 and 171
[1]; Day 25
  Daily food intake (Figure 7E): 202 and 170 and 204 and 187.3
[1]; Day 26
  Daily food intake (Figure 7E): 228.6 and 186.2 and 200.8 and 187.3
[1]; Day 27
  Daily food intake (Figure 7E): 177.9 and 175.1 and 174 and 179
[1]; Day 28
  Daily food intake (Figure 7E): 225.9 and 175.3 and 174.1 and 226.9
[1]; diabetic WCDD301-treated mice
  Food intake, daily monitoring: phenotypes similar to nondiabetic placebo-treated mice
[2]
  EphA4 signal within α cells: 21.84 ± 1.14 AU
[3]; 15 min
  Blood glucose in insulin tolerance test, Normalize with basal (0 min) (Figure 6E): 0.89 and 0.91 and 0.86 and 0.88
[3]; 30 min
  Blood glucose in insulin tolerance test, Normalize with basal (0 min) (Figure 6E): 0.67 and 0.69 and 0.65 and 0.68
[3]; 45 min
  Blood glucose in insulin tolerance test, Normalize with basal (0 min) (Figure 6E): 0.67 and 0.74 and 0.62 and 0.66
[3]; 60 min
  Blood glucose in insulin tolerance test, Normalize with basal (0 min) (Figure 6E): 0.71 and 0.73 and 0.77 and 0.72
[3]; 90 min
  Blood glucose in insulin tolerance test, Normalize with basal (0 min) (Figure 6E): 0.7 and 0.8 and 0.75 and 0.96
[3]; 120 min
  Blood glucose in insulin tolerance test, Normalize with basal (0 min) (Figure 6E): 0.89 and 0.85 and 0.9 and 0.93
[4]; 1, 3 or 6 hours, Supplemental Figure 4A-C
  Effect on somatostatin secretion: no effect on somatostatin secretion
[4]; WCDD301
  Somatostatin secretion (Supplemental Figure 4D; quantity not given): 1740.7 and 1280.5 and 1500.0
